We go through twelve molecules from patent publication US8383375B2 (Posco, priority 2004, dated 2013).

Data set [1] concerns the target T1, Ss gluconate dehydratase (Saccharolobus solfataricus, UniProt Q97U27).
T1 sequence (Q97U27 1-395): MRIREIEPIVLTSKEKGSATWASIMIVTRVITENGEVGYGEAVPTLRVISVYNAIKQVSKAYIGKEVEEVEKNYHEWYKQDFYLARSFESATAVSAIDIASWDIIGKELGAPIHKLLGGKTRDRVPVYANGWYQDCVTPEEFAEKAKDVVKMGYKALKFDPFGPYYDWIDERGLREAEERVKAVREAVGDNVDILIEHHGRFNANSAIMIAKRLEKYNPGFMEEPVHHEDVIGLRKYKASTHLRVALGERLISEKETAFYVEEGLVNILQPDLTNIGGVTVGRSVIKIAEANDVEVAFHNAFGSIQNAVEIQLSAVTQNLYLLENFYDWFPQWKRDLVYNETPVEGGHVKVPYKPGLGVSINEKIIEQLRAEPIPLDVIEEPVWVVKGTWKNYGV
Description: Substrate specificities of Ss gluconate dehydratase (semicarbazide method). The format is biochemical, Sulfolobus solfataricus. Also on record: made in house; host or cells: Sulfolobus solfataricus cells (native source, not recombinant). Conditions: for Reaction on substrate / Relative activity (%): 10 mM aldonic acid, 1 mM CoCl2, 50 mM Tri-HCl buffer pH 7.0, 30 min, 78 C; for Relative activity (%): relative to D-gluconate.
Description: (§1) The semicarbazide method was performed as follows: an enzyme reaction of a total volume a 400 μl was incubated at 78° C. in 50 mM Tris-HCl buffer, pH 7.0, with 10 mM gluconate and an enzyme solution. After 30 min, the enzyme reaction was stopped by the addition of 100 μl 2.0 M HCl. To this solution, 300 μl of semicarbazide solution (1.0% (w/v) semicarbazide hydrochloride and 1.5% (w/v) sodium acetate dissolved in distilled water) was added and incubated at 30° C. for 15 min. The final reaction mixture was diluted with 500 μl distilled water and then measured at 250 nm. The absorbance coefficient of the semicarbazone formation toward 2-keto-3-deoxy gluconate (KDG) was taken to be 0.571×10^3 M^−1 cm^−1.
(§2) For analysis of substrate specificities of gluconate dehydrates, a 10 mM solution of each aldonic acid containing carbon chains ranging from C4 to C7 were incubated together with 40 μg/mL of purified protein. […] All experiments were performed in three plicate.

The target of data set [2] is T1, Ss gluconate dehydratase.
Description: as §1, §2
Biochemical and kinetic parameters for the enzyme were determined using the assay method described above under standard conditions.
Values for Vmax and Km were determined from Lineweaver bulk plots. The rate dependence on substrate concentration followed Michaelis-Meten kinetics.
Data set [3] can be described thus: Temperature profile of enzyme activity. Type of data set: biochemical. As to the method: The temperature profile for enzyme activity was determined between 40 and 100° C.
The format of data set [4] is physicochemical. The procedure:
Enzyme thermostability was determined at 80, 90, and 100° C. by incubating enzyme solution (50 μg/ml) in 50 mM Tri-HCl (pH 7.2). At an appropriate time, samples were taken and completely cooled on ice and then measured for residual activities under standard conditions. The thermostability of purified gluconate dehydrates was measured at 80, 90, and 100° C.

One may read the Km as the concentration of substrate that gives half-maximal velocity.

`OC[C@@H](O)[C@@H](O)[C@H](O)[C@@H](O)CO` [D-glucitol]: at Ss gluconate dehydratase [1], the Reaction on substrate result is “No reaction on the following substrates: L-arabonate, D-xylonate, D-galacturonate, D-glucitol, D-mannonate, and D, L-glycerate”.
In the case of D-Galactoheptonate, the “Relative activity (%)” value on Ss gluconate dehydratase [1] came out at 1.6%.
Same read-out and setting: next, `O=C(O)[C@H](O)[C@@H](O)[C@@H](O)[C@H](O)CO` [D-Galactonate]: 2.8%.
With `O=C(O)[C@@H](O)[C@@H](O)[C@H](O)[C@H](O)CO` [D-mannonate], the Reaction on substrate result on Ss gluconate dehydratase [1] is “No reaction on the following substrates: L-arabonate, D-xylonate, D-galacturonate, D-glucitol, D-mannonate, and D, L-glycerate”.
Still for that read-out and setting: next, `O=C(O)C(O)CO` [D, L-glycerate]: “No reaction on the following substrates: L-arabonate, D-xylonate, D-galacturonate, D-glucitol, D-mannonate, and D, L-glycerate”; `O=C(O)[C@H](O)[C@@H](O)[C@@H](O)CO` [L-arabonate]: “No reaction on the following substrates: L-arabonate, D-xylonate, D-galacturonate, D-glucitol, D-mannonate, and D, L-glycerate”.
Same read-out and setting: next, `O=C(O)[C@H](O)[C@@H](O)[C@H](O)CO` [D-xylonate]: “No reaction on the following substrates: L-arabonate, D-xylonate, D-galacturonate, D-glucitol, D-mannonate, and D, L-glycerate”.
As for `O=C(O)[C@H](O)[C@@H](O)[C@H](O)[C@H](O)CO` [D-Gluconate], the conversion on Ss gluconate dehydratase [1] (10 mM substrate, 40 μg/mL purified protein, standard condition) turned out to be 100%. The “Relative activity (%)” value at Ss gluconate dehydratase [1] is listed as 100.0%. For the same molecule, the Km at Ss gluconate dehydratase [2] (D-gluconate 0.1 to 40 mM as substrate, Lineweaver-Burk plots) is 16.7 mM. The “turnover number (kcat)” value at Ss gluconate dehydratase [2] (D-gluconate as substrate) stood at 333 s⁻¹. The molecule further gave a Vm at Ss gluconate dehydratase [2] (D-gluconate as substrate, Lineweaver-Burk plots) of 34.5 units/mg.
Regarding `O=C[C@H](O)[C@@H](O)[C@@H](O)[C@H](O)C(=O)O` [D-galacturonate], at Ss gluconate dehydratase [1], the Reaction on substrate result is “No reaction on the following substrates: L-arabonate, D-xylonate, D-galacturonate, D-glucitol, D-mannonate, and D, L-glycerate”.
For the molecule `O=C(O)[C@@H](O)[C@H](O)[C@H](O)CO` [D-Arabonate], on Ss gluconate dehydratase [1], the “Relative activity (%)” value stood at 0.7%.
On to L-isovalerate [D, L-isovalerate], for which the “Relative activity (%)” value on Ss gluconate dehydratase [1] amounted to 0.25%.

B1: gluconate dehydratase: thermostable gluconate dehydratase purified from Sulfolobus solfataricus P2, SEQ ID NO:2, octamer (protein, listed as Sulfolobus solfataricus)
chain: T1 sequence (Q97U27 1-395)
modifications: octamer
For B1, the “Enzyme activity below 60° C.” value in data set [3] was “not detectable”. The “enzyme activity after incubation at 90° C.” value in data set [4] (90° C., 2 hour incubation, 50 μg/ml enzyme in 50 mM Tri-HCl pH 7.2) is “below 50%”. In addition, the “thermostability at 80° C.” value in data set [4] (pH 7.2) is given as “very stable over 2 hours”.
